Assay results taken from patent US20230348473A1, “SUBSTITUTED PYRIDINES AS PARP1 INHIBITORS” (Xinthera, Inc., priority 2022, published 2023).

Key:
[1] = Caco-2 bidirectional permeability; type: in vitro ADME; details: human; for Papp A→B at 2 h, 5 μM: apical-to-basolateral, read-out: Caco-2 AB; for Papp B→A at 2 h, 5 μM: basolateral-to-apical, read-out: Caco-2 BA; for efflux ratio at 2 h, 5 μM: efflux ratio Papp (B-to-A)/Papp (A-to-B)
Description: Following a 1-hr. equilibration period in cell culture medium maintained at 37° C. in an incubator containing a 5% CO2 atmosphere at 95% relative humidity, Corning 96-well HTS Transwell® permeable support plates were seeded with 34,300 Caco-2 cells (ATCC) per well. Following seeding, plates were cultured for 14-18 days with cell culture medium replacement every other day beginning no later than 24 hr. after plating. Monolayer barrier integrity was monitored during the culture period using transepithelial electrical resistance (TEER) measurements taken with a Millicell Epithelial Volt-Ohm system. Caco-2 monolayers were considered ready for use when the TEER value >230 ohm·cm^2. Working stocks of individual test articles were prepared at a concentration of 5 μM by diluting 1 mM stocks prepared in DMSO into 10 mM HEPES. Prior to conducting the assay, Caco-2 plates were washed twice with prewarmed 10 mM HEPES and then equilibrated in 10 mM HEPES for 30 min. at 37° C. Following equilibration, test article flux was tested bidirectionally (in both the apical-to-basolateral and basolateral-to-apical directions) by adding test article working stocks to either the apical or basolateral chambers. Blank 10 mM HEPES was added to the opposite sides. Plates were then incubated at 37° C. for 2 hours. At the end of the incubation, aliquots from both sides of each monolayer were quenched with 4 volumes of ACN containing internal standards. Following a centrifugation step, supernatants were diluted with pure water prior to analysis via LC-MS/MS.
Apparent permeability (Papp, ×10^−6 cm/s) was calculated for all transport assays using the following equation: […]
Where: Papp is apparent permeability (×10^−6 cm/s). • dQ/dt is the rate of drug transport (pmol/s). • A is the surface area of the membrane (cm^2). • D0 is the initial donor concentration (nM; pmol/cm^3).
Efflux ratio was determined by calculating the ratio of the Papp in the basolateral-to-apical direction to the Papp in the apical-to-basolateral direction using the following equation: […]
Where: Papp (B-to-A) is the apparent permeability in the basolateral-to-apical direction. • Papp (A-to-B) is the apparent permeability in the apical-to-basolateral direction.

[2] = hHEP metabolic stability, predicted human hepatic clearance; type: in vitro ADME; details: well-stirred model, 1 μM
Description: Working stocks of individual test articles were prepared at concentrations of 100 μM by diluting 10 mM stocks prepared in DMSO 100-fold (v:v) into ACN/H2O (50/50, v:v). Human cryopreserved hepatocytes were thawed in a 37° C. water bath in <2 min., suspended in thawing media, and then centrifuged at 100×g for 10 min. Thawing media was aspirated, and pelleted hepatocytes were resuspended into incubation media at 1.5×10^6 cells/mL. Cell viability was determined using an Acridine Orange/Propidium Iodine stain, and hepatocytes were further diluted with incubation media to 0.5×10^6 viable cells/mL. Hepatocyte aliquots of 198 μL were added to wells of a 96-well plate, and test article incubations were initiated by the addition of 2 μL of 100 μM working stocks. Plates were incubated at 37° C. in a 5% CO2 atmosphere at 95% relative humidity on an orbital shaker at 300 rpm. Incubations were performed in duplicate. Following incubation, aliquots of individual reactions were terminated by addition of ACN containing internal standards at 0, 30-, 60-, 90-, 120-, and 240-min. Precipitated protein was pelleted via refrigerated centrifugation. Supernatants were diluted into an equal volume of pure water and mixed well prior to analysis via LC-MS/MS. In vitro intrinsic clearances (CLint) in μL/min/10^6 cells were determined for each incubation from calculated in vitro half-lives determined using a standard log-linear regression approach. In vitro CLint values were scaled up using the following physiological scaling factors: 99×10^6 cells/g human liver and 25.7 g human liver/kg body weight.

[3] = HLM metabolic stability, predicted human hepatic clearance; type: in vitro ADME; details: well-stirred model, 1 μM
Description: Working stocks of individual test articles were prepared at a concentration of 100 μM by diluting 10 mM stocks prepared in DMSO 100-fold (v:v) into ACN. Thawed hepatic microsomes were suspended in 100 mM potassium phosphate buffer, pH 7.4 to a microsomal protein concentration of 0.562 mg/mL. Diluted microsomes were combined with a solution of 10 mM NADPH, and the mixture was pre-warmed to 37° C. for 8 min. Reactions were initiated by addition of the test article working stocks to achieve a final test article concentration of 1 μM. Final microsomal protein and NADPH concentrations were 0.5 mg/mL and 1 mM, respectively. Incubations containing NADPH were run in duplicate. Test article losses mediated by non-CYP mechanisms were evaluated in a parallel set of incubations run in the absence of NADPH. Incubations lacking NADPH consisted of 1 replicate per test article. Following incubation in a 37° C. water bath, aliquots of individual reactions were quenched with cold ACN containing internal standards at […], 15-, 30-, 60-, 90-, and 120-min. Precipitated protein was pelleted via refrigerated centrifugation. Supernatants were diluted into an equal volume of pure water and mixed well prior to analysis via LC-MS/MS. In vitro intrinsic clearances (CLint) in μL/min/mg were determined for each incubation from calculated in vitro half-lives determined using a standard log-linear regression approach. In vitro CLint values were scaled up using the following physiological scaling factors: 40 mg microsomal protein/g human liver and 25.7 g human liver/kg body weight.

PARP1 = PARP1 (Homo sapiens (Human), UniProt P09874); test: Biochemical fluorescence polarization (FP) assay, PARPi-FL displacement, PARP1; type: binding; details: 20 nM protein, 3 nM PARPi-FL, 4 h
Description: (§1) To characterize our compounds, we utilized an assay measuring the displacement of a commercially available fluorescently labeled PARP 1/2 inhibitor (PARPi-FL, Tocris Biosciences, #6461) as exemplified in assays performed in WO2014/064149 and WO2021/013735A1. The assay was performed utilizing the following method: Compounds were dissolved in DMSO an Echo550 liquid handler was utilized to make serial dilations in the desired concentration range in Optiplate-384F plates. 100% DMSO was used for the high (with protein) and low (without protein) control samples. 20 nL of compound or DMSO alone was added to individual assay plate wells. […] The PARPi-FL was then added at a final concentration of 3 nM. The assay plate is centrifuged at 1000 rpm for 1 min and incubated for 4 h at room temperature. […] XLFit (equation 201) is used to calculate a reported IC50 for each compound.

PARP2 = PARP2 (Homo sapiens (Human), UniProt Q9UGN5); test: Biochemical fluorescence polarization (FP) assay, PARPi-FL displacement, PARP2; type: binding; details: 20 nM protein, 3 nM PARPi-FL, 4 h
Description: as §1

Chain of PARP1 (P09874 whole entry): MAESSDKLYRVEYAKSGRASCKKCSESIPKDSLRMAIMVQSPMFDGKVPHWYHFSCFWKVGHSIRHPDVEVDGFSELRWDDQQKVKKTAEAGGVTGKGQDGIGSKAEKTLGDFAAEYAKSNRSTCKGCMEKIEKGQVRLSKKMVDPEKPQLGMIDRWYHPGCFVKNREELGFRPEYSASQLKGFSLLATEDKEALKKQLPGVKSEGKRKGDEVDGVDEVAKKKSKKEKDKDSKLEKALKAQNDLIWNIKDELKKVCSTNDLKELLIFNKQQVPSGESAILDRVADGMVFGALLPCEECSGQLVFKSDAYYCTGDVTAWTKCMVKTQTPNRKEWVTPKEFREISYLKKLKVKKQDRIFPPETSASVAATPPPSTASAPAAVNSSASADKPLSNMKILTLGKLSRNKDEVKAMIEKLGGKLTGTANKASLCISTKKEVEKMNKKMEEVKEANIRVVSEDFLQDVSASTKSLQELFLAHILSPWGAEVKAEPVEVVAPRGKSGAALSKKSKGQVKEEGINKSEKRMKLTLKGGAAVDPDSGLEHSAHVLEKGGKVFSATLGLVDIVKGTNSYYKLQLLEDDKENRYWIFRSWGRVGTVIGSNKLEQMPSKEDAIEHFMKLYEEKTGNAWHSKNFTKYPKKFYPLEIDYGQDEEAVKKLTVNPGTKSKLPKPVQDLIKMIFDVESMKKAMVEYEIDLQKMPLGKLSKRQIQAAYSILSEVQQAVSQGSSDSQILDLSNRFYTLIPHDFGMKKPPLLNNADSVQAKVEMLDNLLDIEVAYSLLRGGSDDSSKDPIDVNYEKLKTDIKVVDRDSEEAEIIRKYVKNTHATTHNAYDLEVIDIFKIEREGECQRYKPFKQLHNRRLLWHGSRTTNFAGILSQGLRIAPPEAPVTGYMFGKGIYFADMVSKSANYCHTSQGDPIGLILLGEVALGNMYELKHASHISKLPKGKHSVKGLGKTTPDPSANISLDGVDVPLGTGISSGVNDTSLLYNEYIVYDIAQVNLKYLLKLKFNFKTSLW
Chain of PARP2 (Q9UGN5 whole entry): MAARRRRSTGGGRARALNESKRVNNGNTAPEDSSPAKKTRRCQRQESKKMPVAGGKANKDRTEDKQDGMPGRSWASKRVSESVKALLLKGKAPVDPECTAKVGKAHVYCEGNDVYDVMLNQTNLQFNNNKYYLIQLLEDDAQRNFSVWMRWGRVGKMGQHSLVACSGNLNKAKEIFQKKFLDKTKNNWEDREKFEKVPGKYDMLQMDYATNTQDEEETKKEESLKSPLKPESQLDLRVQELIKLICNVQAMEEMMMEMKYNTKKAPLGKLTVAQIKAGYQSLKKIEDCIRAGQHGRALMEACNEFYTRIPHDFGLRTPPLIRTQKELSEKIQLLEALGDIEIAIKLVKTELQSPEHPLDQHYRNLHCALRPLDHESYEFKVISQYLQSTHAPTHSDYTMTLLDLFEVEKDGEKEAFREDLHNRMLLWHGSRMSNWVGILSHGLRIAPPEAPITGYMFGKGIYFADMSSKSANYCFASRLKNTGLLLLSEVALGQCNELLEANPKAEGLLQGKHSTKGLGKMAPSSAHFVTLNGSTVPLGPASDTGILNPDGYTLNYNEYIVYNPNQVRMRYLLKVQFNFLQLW

| Structure (SMILES) | Papp A→B at 2 h, 5 μM [1] [×10⁻⁶ cm/s] | Papp B→A at 2 h, 5 μM [1] [×10⁻⁶ cm/s] | HHEP Clh [2] [mL/min/kg] | HLM Clh [3] [mL/min/kg] | efflux ratio at 2 h, 5 μM [1] | IC50 (PARP1) [nM] | IC50 (PARP2) [nM] |
| --- | --- | --- | --- | --- | --- | --- | --- |
| CNC(=O)c1ccc(N2CCN(Cc3ccc4c5c(c(=O)[nH]c4c3)CCO5)CC2)c(C)n1 [Comp. Ex. 1, N,6-dimethyl-5-[4-({4-oxo-2H,3H,5H-furo[3,2-c]quinolin-7-yl}methyl)piperazin-1-yl]pyridine-2-carboxamide] | 2.5 | 26.2 | <3.3 | <4 |  |  |  |
| CNC(=O)c1ccc(N2CCN(Cc3ccc4c5c(c(=O)[nH]c4c3)CCO5)CC2)c(Cl)n1 [Comp. Ex. 2, 6-chloro-N-methyl-5-[4-({4-oxo-2H,3H,5H-furo[3,2-c]quinolin-7-yl}methyl)piperazin-1-yl]pyridine-2-carboxamide] | 2.4 | 21.9 | 6.6 | 4.2 | 9.3 |  |  |
| CNC(=O)c1ccc(N2CCN(Cc3cc(F)c4c5c(c(=O)[nH]c4c3)COC5)CC2)c(F)n1 [Comp. Ex. 3, 6-fluoro-5-(4-((9-fluoro-4-oxo-1,3,4,5-tetrahydrofuro[3,4-c]quinolin-7-yl)methyl)piperazin-1-yl)-N-methylpicolinamide] | 0.8 | 5.5 | 7.1 | 7.2 | 7.3 |  |  |
| CNC(=O)c1ccc(N2CCN(Cc3ccc4c5c(c(=O)[nH]c4c3F)CCC5)CC2)c(F)n1 [Comp. Ex. 4] | 11.5 | 14.5 | 14.5 | 11.5 |  |  |  |
| O=C(NC1CC1)c1ccc(N2CCN(Cc3ccc4c([nH]c(=O)c5ccnn54)c3F)CC2)c(F)n1 [Example 3] |  |  |  |  |  | 22 | > 100000 |
| Cc1cc2c(=O)[nH]c3c(F)c(CN4CCN(c5ccc(C(=O)NC6CC6)nc5F)CC4)ccc3n2n1 [Example 4] |  |  |  |  |  | 16 | > 100000 |
| CNC(=O)c1ccc(N2CCN(Cc3ccc4c([nH]c(=O)c5cc(C)nn54)c3F)CC2)c(F)n1 [Example 5] |  |  |  |  |  | 41 | > 100000 |
| CNC(=O)c1ccc(N2CCN(Cc3ccc4c([nH]c(=O)c5ccoc54)c3F)CC2)c(F)n1 [Example 6, 6-fluoro-5-[4-({6-fluoro-4-oxo-5H-furo[3,2-c]quinolin-7-yl}methyl)piperazin-1-yl]-N-methylpyridine-2-carboxamide] |  |  |  |  |  | 21 | > 100000 |
| CNC(=O)c1ccc(N2CCN(Cc3ccc4c([nH]c(=O)n5cccc45)c3F)CC2)c(F)n1 [Example 7, 6-fluoro-5-[4-({7-fluoro-5-oxo-6H-pyrrolo[1,2-c]quinazolin-8-yl}methyl)piperazin-1-yl]-N-methylpyridine-2-carboxamide] |  |  |  |  |  | 18 | > 100000 |
| O=C(NCC(F)F)c1ccc(N2CCN(Cc3ccc4c([nH]c(=O)c5ccoc54)c3F)CC2)c(F)n1 [Example 11] |  |  |  |  |  | 14 | > 100000 |
| Cc1cc2c(=O)[nH]c3c(F)c(CN4CCN(c5ccc(C(=O)NCC(F)F)nc5F)CC4)ccc3n2n1 [Example 13] |  |  |  |  |  | 25 | > 100000 |
| O=C(NC1CC1)c1ccc(N2CCN(Cc3ccc4c([nH]c(=O)c5ccoc54)c3F)CC2)c(F)n1 [Example 14] |  |  |  |  |  | 10 | > 100000 |

Second part, the molecule after the results:

| Papp A→B at 2 h, 5 μM [1] [×10⁻⁶ cm/s] | Papp B→A at 2 h, 5 μM [1] [×10⁻⁶ cm/s] | HHEP Clh [2] [mL/min/kg] | HLM Clh [3] [mL/min/kg] | efflux ratio at 2 h, 5 μM [1] | IC50 (PARP1) [nM] | IC50 (PARP2) [nM] | Structure (SMILES) |
| --- | --- | --- | --- | --- | --- | --- | --- |
|  |  |  |  |  | 12 | > 100000 | O=C(NCC(F)F)c1ccc(N2CCN(Cc3ccc4c5c(c(=O)[nH]c4c3F)CCO5)CC2)c(F)n1 [Example 15] |
|  |  |  |  |  | 14 | > 100000 | COCCNC(=O)c1ccc(N2CCN(Cc3ccc4c([nH]c(=O)c5cc(C)nn54)c3F)CC2)c(F)n1 [Example 17] |
|  |  |  |  |  | 100 | > 100000 | CNC(=O)c1ccc(N2CCN(Cc3ccc4c([nH]c(=O)c5cnn(C)c54)c3F)CC2)c(F)n1 [Example 19, 6-fluoro-5-[4-({6-fluoro-1-methyl-4-oxo-5H-pyrazolo[4,3-c]quinolin-7-yl}methyl)piperazin-1-yl]-N-methylpyridine-2-carboxamide] |
|  |  |  |  |  | 11 | > 100000 | CNC(=O)c1ccc(N2CCN(Cc3ccc4c([nH]c(=O)c5cn(C)nc54)c3F)CC2)c(F)n1 [Example 20, 6-fluoro-5-[4-({6-fluoro-2-methyl-4-oxo-5H-pyrazolo[4,3-c]quinolin-7-yl}methyl)piperazin-1-yl]-N-methylpyridine-2-carboxamide] |
|  |  |  |  |  | 26 | > 100000 | CNC(=O)c1ccc(N2CCN(Cc3ccc4c([nH]c(=O)c5c(C)cnn54)c3F)CC2)c(F)n1 [Example 23] |
|  |  |  |  |  | 13 | > 100000 | CNC(=O)c1ccc(N2CCN(Cc3ccc4c5c(c(=O)[nH]c4c3F)CCO5)CC2)cn1 [Example 26] |
|  |  |  |  |  | 10 | > 100000 | CNC(=O)c1ccc(N2CCN(Cc3ccc4c([nH]c(=O)c5c(F)cnn54)c3F)CC2)c(F)n1 [Example 28, 5-[4-({3,6-difluoro-4-oxo-5H-pyrazolo[1,5-a]quinoxalin-7-yl}methyl)piperazin-1-yl]-6-fluoro-N-methylpyridine-2-carboxamide] |
